Data: the Kinase Knowledgebase extract (Sharma et al. 2016)

biological target: MAPK14 (human) (UniProt Q16539); test: Assessment of MAPK14 Kinase Activity
Sequence (Q16539 whole entry, looked up): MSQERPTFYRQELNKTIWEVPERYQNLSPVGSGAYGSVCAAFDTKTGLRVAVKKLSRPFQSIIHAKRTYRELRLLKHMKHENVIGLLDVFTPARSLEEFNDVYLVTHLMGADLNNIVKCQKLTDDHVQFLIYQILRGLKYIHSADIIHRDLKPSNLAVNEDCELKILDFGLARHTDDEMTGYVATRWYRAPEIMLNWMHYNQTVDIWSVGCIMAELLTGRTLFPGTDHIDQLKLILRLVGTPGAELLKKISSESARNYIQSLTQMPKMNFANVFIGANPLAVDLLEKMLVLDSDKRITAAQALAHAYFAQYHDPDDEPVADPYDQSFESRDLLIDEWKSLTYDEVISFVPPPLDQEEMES

IC50 | Structure (SMILES)
≤ 1 µM | CCOC(=O)c1sc2c(ccc(=O)n2-c2ccccc2)c1N(C)Cc1ccccc1
≤ 1 µM | CCOC(=O)c1sc2c(ccc(=O)n2-c2ccccc2)c1Sc1cccc(C)c1
≤ 1 µM | CCOC(=O)c1sc2c(ccc(=O)n2-c2ccccc2)c1C(O)c1ccccc1 (centres undefined)
≤ 1 µM | CCOC(=O)c1sc2c(ccc(=O)n2-c2ccccc2)c1NCc1c(F)cccc1F
≤ 1 µM | NC(=O)c1sc2c(ccc(=O)n2-c2ccccc2)c1Sc1ccccc1
≤ 1 µM | CCOC(=O)c1sc2c(ccc(=O)n2-c2ccccc2)c1S(=O)(=O)Nc1ccccc1
≤ 1 µM | CCOC(=O)c1sc2c(ccc(=O)n2-c2ccccc2)c1CCc1ccccc1
≤ 1 µM | CCOC(=O)c1sc2c(ccc(=O)n2-c2ccccc2)c1C(O)c1cccc(C)c1 (centres undefined)
≤ 1 µM | CCOC(=O)c1sc2c(ccc(=O)n2-c2ccccc2)c1C(O)c1cccc(Cl)c1 (centres undefined)
≤ 1 µM | CCOC(=O)c1sc2c(ccc(=O)n2-c2ccccc2)c1NC(C)c1ccccc1 (centres undefined)
≤ 1 µM | CCOC(=O)c1sc2c(ccc(=O)n2-c2ccccc2)c1NCc1ccccn1
≤ 1 µM | CCOC(=O)c1sc2c(ccc(=O)n2-c2ccccc2)c1Cc1ccccc1
≤ 1 µM | N#Cc1sc2c(ccc(=O)n2-c2ccccc2)c1NCc1ccccc1
≤ 1 µM | CCOC(=O)c1sc2c(ccc(=O)n2-c2ccccc2)c1NC(=O)c1ccccc1
≤ 1 µM | CCOC(=O)c1sc2c(ccc(=O)n2CC2CC2)c1C(O)c1ccccc1 (centres undefined)
≤ 1 µM | CCOC(=O)c1sc2c(ccc(=O)n2-c2ccccc2)c1NS(=O)(=O)c1ccccc1
≤ 1 µM | CCOC(=O)c1sc2c(ccc(=O)n2-c2ccccc2)c1Sc1ccccc1
≤ 1 µM | CCOC(=O)c1sc2c(ccc(=O)n2-c2ccccc2)c1NCc1ccccc1
≤ 1 µM | N#Cc1sc2c(ccc(=O)n2-c2ccccc2)c1C(O)c1ccccc1 (centres undefined)
≤ 1 µM | CCOC(=O)c1sc2c(ccc(=O)n2-c2ccccc2)c1NC(=O)c1ccc(N)cc1
≤ 1 µM | CCOC(=O)c1sc2c(ccc(=O)n2-c2ccccc2)c1Oc1ccccc1
≤ 1 µM | Cc1cccc(C(O)c2c(C#N)sc3c2ccc(=O)n3-c2ccccc2)c1 (centres undefined)
≤ 1 µM | CCOC(=O)c1sc2c(ccc(=O)n2-c2ccccc2)c1C(O)c1cccc(C)n1 (centres undefined)
≤ 1 µM | CCOC(=O)c1sc2c(ccc(=O)n2-c2ccccc2)c1NNc1ccc(C)cc1
